Experimental data published in article PMC4624780 (PLoS ONE, 2015).
Entries after “also recorded” stand apart in the source; their conditions may differ. Square brackets hold non-standard residues; d marks the D form. Peptide text beside a SMILES is read from it. Ahx = NCCCCCC(=O)O

Test system: FMDV 3A protein homodimerization in BHK-21 cells
Format: cell-based, foot-and-mouth disease virus (FMDV)

Molecule	3A dimerization (PLA fluorescent dots relative to cells incubated with no peptide)
CC[C@H](C)[C@H](NC(=O)[C@H](CC(C)C)NC(=O)[C@@H]1CCCN1C(=O)[C@H](CCCNC(=N)N)NC(=O)[C@H](CC(C)C)NC(=O)[C@H](CCC(=O)O)NC(=O)CCCCCNC(=O)[C@H](CCCNC(=N)N)NC(=O)[C@H](CCCNC(=N)N)NC(=O)[C@H](CCCNC(=N)N)NC(=O)[C@H](CCCNC(=N)N)NC(=O)[C@H](CCCNC(=N)N)NC(=O)[C@H](CCCNC(=N)N)NC(=O)[C@@H](N)CCCNC(=N)N)C(=O)N[C@@H](CCC(N)=O)C(=O)N[C@@H](CCC(N)=O)C(N)=O [Peptide R7-α2] (H-RRRRRRR[Ahx]ELRPLIQQ-NH2; N-terminus assumed)	lack of effect
RRRRRRRXFFEGMVHDS [Peptide R7-α1]	decreasing trend; also recorded: higher inhibitions
